Reference: the CheMixHub viscosity set

Test: xn = mol fraction of the nth substance listed

C1CCOC1 + C1CCCCC1
Conditions	viscosity [mPa·s]
298.15 K, 101.3 kPa, x2 = 0.1002	0.4906
298.15 K, 101.3 kPa, x2 = 0.1973	0.5151
298.15 K, 101.3 kPa, x2 = 0.2946	0.5406
298.15 K, 101.3 kPa, x2 = 0.3963	0.5689
298.15 K, 101.3 kPa, x2 = 0.5012	0.6048
298.15 K, 101.3 kPa, x2 = 0.5961	0.6424
298.15 K, 101.3 kPa, x2 = 0.7009	0.6906
298.15 K, 101.3 kPa, x2 = 0.906	0.8152
303.15 K, 101.33 kPa, x1 = 0.0954	0.751
303.15 K, 101.33 kPa, x1 = 0.1961	0.691
303.15 K, 101.33 kPa, x1 = 0.3067	0.639
303.15 K, 101.33 kPa, x1 = 0.4023	0.6
303.15 K, 101.33 kPa, x1 = 0.5059	0.562
303.15 K, 101.33 kPa, x1 = 0.6054	0.533
303.15 K, 101.33 kPa, x1 = 0.704	0.505
303.15 K, 101.33 kPa, x1 = 0.8065	0.478
303.15 K, 101.33 kPa, x1 = 0.8987	0.457
313.15 K, 101.3 kPa, x2 = 0.1002	0.4186
313.15 K, 101.3 kPa, x2 = 0.1973	0.4356
313.15 K, 101.3 kPa, x2 = 0.2946	0.4542
313.15 K, 101.3 kPa, x2 = 0.3963	0.4773
313.15 K, 101.3 kPa, x2 = 0.5012	0.5037
313.15 K, 101.3 kPa, x2 = 0.5961	0.5305
313.15 K, 101.3 kPa, x2 = 0.7009	0.5648
313.15 K, 101.3 kPa, x2 = 0.906	0.6505

CC(C)=O + C1CCCCC1
viscosity [mPa·s], 101.33 kPa
Conditions	293.15 K	298.15 K	303.15 K	307.35 K
x1 = 0.091	–	–	–	0.662
x1 = 0.3116	–	–	–	0.512
x1 = 0.3949	–	–	–	0.461
x1 = 0.4589	–	–	–	0.431
x1 = 0.5299	–	–	–	0.402
x1 = 0.7897	–	–	–	0.323
x2 = 0.049	0.329	0.313	0.299	–
x2 = 0.0917	0.336	0.32	0.305	–
x2 = 0.1959	0.361	0.343	0.326	–
x2 = 0.2889	0.392	0.371	0.352	–
x2 = 0.4092	0.443	0.417	0.394	–
x2 = 0.5009	0.486	0.456	0.429	–
x2 = 0.5984	0.544	0.509	0.477	–
x2 = 0.7007	0.621	0.578	0.54	–
x2 = 0.8046	0.7	0.65	0.606	–
x2 = 0.9051	0.818	0.756	0.701	–
x2 = 0.958	0.895	0.829	0.762	–

CCCc1ccccc1 + C1CCCCC1
303.15 K, 101 kPa
Conditions	viscosity [mPa·s]
x2 = 0.1018	0.7449
x2 = 0.2046	0.7318
x2 = 0.3024	0.7218
x2 = 0.3975	0.7149
x2 = 0.5018	0.7144
x2 = 0.6007	0.716
x2 = 0.6984	0.7272
x2 = 0.7974	0.749
x2 = 0.9039	0.7828

COc1ccccc1 + C1CCCCC1
viscosity [mPa·s]
Conditions	298.15 K	303.15 K	308.15 K	313.15 K
101 kPa, x1 = 0.1016	0.8187	0.7586	0.7009	0.6496
101 kPa, x1 = 0.1993	0.7856	0.7308	0.68	0.6314
101 kPa, x1 = 0.3005	0.77	0.7174	0.668	0.6223
101 kPa, x1 = 0.3997	0.7696	0.7169	0.6674	0.6228
101 kPa, x1 = 0.5014	0.7849	0.7317	0.6829	0.637
101 kPa, x1 = 0.6014	0.803	0.7509	0.7001	0.6546
101 kPa, x1 = 0.7043	0.8378	0.7843	0.7318	0.6823
101 kPa, x1 = 0.8	0.8834	0.8216	0.7693	0.7163
101 kPa, x1 = 0.8992	0.9338	0.87	0.8092	0.7511
101.3 kPa, x1 = 0.0224	–	0.799	–	–
101.3 kPa, x1 = 0.0385	–	0.783	–	–
101.3 kPa, x1 = 0.0614	–	0.773	–	–
101.3 kPa, x1 = 0.4829	–	0.708	–	–
101.3 kPa, x1 = 0.5172	–	0.714	–	–
101.3 kPa, x1 = 0.5409	–	0.72	–	–
101.3 kPa, x1 = 0.5731	–	0.729	–	–
101.3 kPa, x1 = 0.7744	–	0.792	–	–
101.3 kPa, x1 = 0.8952	–	0.846	–	–
101.3 kPa, x1 = 0.9478	–	0.884	–	–
